Experimental data as given in ChEMBL document CHEMBL4602624, “Discovery of a potent and selective adenylyl cyclase type 8 agonist by docking-based virtual screening” (Bioorg Med Chem Lett, 2020).
Calls of active or inactive are those of the source. The rule behind the calls is not given here.

Columns and labels:
Assay type in all cases: cell-based
[1] = biological target: Adenylate cyclase type 5 (Homo sapiens) (UniProt O95622); experiment: Agonist activity at recombinant human AC5 expressed in human HEK293 cells assessed as increase in cAMP level at 50 uM by LANCE Ultra cAMP Detection kit method
[2] = biological target: Adenylate cyclase type 2 (Homo sapiens) (UniProt Q08462); experiment: Agonist activity at recombinant human AC2 expressed in human HEK293 cells assessed as increase in cAMP level at 50 uM by LANCE Ultra cAMP Detection kit method
[3] = biological target: Adenylate cyclase type 1 (Homo sapiens) (UniProt Q08828); experiment: Agonist activity at recombinant human AC1 expressed in human HEK293 cells assessed as increase in cAMP level at 50 uM by LANCE Ultra cAMP Detection kit
Adenylate cyclase type 8 [4] = biological target: T1, Adenylate cyclase type 8 (Homo sapiens, UniProt P40145); experiment: Agonist activity at recombinant human AC8 expressed in human HEK293 cells assessed as fold increase in cAMP level by LANCE Ultra cAMP Detection kit method
Adenylate cyclase type 8 [5] = biological target: T1, Adenylate cyclase type 8; experiment: Agonist activity at recombinant human AC8 expressed in human HEK293 cells assessed as fold increase in cAMP level at 50 uM by LANCE Ultra cAMP Detection kit method relative to control

T1 sequence (P40145 whole entry): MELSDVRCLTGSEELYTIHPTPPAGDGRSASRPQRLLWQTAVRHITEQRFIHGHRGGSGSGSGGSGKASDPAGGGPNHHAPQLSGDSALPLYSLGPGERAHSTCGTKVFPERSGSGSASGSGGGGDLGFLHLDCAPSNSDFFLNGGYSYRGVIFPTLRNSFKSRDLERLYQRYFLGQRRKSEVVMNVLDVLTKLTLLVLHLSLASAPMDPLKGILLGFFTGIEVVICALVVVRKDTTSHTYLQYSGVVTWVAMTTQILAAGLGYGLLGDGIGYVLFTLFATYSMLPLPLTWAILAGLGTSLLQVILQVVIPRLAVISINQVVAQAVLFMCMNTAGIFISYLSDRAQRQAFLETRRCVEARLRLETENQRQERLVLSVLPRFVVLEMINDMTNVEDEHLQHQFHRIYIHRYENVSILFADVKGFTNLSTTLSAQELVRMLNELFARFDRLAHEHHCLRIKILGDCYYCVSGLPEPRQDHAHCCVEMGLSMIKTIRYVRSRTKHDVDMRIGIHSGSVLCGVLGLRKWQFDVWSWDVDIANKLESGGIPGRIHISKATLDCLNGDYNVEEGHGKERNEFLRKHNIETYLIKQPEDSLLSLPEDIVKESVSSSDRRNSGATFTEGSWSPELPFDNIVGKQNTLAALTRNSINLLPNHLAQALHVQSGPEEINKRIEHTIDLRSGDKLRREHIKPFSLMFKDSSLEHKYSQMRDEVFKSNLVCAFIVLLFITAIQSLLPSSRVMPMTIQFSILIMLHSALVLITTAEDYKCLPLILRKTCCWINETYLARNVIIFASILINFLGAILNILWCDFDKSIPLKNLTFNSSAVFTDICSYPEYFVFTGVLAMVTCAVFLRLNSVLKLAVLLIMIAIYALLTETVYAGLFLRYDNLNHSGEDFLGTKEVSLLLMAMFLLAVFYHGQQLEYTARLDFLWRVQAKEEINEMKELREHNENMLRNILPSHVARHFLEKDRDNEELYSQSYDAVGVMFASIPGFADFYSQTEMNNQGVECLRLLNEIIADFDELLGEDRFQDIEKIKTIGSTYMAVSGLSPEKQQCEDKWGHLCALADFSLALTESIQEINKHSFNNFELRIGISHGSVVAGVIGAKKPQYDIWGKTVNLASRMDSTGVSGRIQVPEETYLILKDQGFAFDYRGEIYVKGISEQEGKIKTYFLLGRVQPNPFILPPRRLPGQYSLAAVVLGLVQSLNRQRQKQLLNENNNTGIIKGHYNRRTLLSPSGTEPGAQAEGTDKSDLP
Sequence of Adenylate cyclase type 1 (Homo sapiens) (Q08828 whole entry, looked up): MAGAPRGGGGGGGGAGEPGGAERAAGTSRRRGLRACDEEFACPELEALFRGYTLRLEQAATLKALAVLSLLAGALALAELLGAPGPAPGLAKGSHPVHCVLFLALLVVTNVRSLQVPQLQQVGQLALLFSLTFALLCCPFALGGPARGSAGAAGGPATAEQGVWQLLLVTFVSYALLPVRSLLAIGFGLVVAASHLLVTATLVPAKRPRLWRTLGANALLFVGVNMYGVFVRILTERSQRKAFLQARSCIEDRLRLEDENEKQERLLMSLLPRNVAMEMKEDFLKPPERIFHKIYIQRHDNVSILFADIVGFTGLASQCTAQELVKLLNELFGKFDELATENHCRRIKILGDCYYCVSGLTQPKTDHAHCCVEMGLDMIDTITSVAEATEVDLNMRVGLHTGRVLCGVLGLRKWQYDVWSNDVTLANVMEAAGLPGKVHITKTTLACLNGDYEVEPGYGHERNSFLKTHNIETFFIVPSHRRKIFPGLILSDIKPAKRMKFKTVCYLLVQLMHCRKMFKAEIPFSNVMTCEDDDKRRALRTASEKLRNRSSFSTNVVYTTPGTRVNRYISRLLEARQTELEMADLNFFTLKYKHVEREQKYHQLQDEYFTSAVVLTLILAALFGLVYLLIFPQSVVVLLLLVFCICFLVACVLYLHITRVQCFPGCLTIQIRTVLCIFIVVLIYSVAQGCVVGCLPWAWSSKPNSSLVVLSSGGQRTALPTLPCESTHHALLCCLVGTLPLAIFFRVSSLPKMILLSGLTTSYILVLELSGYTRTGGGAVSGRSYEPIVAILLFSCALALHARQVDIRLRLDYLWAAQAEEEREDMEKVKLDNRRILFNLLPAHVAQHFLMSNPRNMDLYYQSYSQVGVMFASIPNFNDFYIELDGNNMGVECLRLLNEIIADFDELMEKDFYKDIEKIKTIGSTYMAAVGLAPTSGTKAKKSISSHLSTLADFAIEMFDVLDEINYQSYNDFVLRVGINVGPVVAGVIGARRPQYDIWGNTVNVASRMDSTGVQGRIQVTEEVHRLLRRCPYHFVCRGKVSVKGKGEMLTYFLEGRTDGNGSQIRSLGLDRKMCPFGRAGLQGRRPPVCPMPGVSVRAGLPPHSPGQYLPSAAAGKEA
Sequence of Adenylate cyclase type 5 (Homo sapiens) (O95622 whole entry, looked up): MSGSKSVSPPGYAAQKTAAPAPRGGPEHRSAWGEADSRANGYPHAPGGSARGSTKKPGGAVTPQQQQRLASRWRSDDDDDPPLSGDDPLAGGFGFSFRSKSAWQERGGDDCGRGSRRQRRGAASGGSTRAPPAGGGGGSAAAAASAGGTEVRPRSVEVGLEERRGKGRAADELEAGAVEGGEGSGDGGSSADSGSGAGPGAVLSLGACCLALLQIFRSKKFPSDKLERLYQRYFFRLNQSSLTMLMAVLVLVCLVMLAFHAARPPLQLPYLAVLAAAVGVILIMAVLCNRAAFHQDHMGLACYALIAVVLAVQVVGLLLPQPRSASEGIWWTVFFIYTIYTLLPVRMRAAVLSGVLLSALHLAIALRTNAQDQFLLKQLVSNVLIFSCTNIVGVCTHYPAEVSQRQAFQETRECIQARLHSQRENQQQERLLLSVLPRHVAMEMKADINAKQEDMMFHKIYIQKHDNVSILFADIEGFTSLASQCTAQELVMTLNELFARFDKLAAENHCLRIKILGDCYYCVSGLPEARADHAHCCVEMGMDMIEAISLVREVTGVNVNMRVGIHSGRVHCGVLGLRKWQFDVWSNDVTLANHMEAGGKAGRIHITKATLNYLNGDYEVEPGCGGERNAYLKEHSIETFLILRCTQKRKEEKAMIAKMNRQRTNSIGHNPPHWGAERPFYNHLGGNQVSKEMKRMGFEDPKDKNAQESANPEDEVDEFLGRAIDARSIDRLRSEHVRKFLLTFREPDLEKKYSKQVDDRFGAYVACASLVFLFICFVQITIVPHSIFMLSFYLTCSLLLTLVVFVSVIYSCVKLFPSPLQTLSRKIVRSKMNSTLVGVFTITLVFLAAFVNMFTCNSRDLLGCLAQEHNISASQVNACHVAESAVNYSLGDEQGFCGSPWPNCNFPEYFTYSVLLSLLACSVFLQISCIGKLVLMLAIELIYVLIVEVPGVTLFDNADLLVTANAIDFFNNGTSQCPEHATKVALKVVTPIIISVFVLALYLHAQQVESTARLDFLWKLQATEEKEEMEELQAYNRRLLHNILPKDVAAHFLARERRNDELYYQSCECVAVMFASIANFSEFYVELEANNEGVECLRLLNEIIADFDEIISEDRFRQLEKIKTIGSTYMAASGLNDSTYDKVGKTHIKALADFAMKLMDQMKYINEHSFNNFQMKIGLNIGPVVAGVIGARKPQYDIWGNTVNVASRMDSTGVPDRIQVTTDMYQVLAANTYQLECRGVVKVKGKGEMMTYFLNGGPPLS
Sequence of Adenylate cyclase type 2 (Homo sapiens) (Q08462 whole entry): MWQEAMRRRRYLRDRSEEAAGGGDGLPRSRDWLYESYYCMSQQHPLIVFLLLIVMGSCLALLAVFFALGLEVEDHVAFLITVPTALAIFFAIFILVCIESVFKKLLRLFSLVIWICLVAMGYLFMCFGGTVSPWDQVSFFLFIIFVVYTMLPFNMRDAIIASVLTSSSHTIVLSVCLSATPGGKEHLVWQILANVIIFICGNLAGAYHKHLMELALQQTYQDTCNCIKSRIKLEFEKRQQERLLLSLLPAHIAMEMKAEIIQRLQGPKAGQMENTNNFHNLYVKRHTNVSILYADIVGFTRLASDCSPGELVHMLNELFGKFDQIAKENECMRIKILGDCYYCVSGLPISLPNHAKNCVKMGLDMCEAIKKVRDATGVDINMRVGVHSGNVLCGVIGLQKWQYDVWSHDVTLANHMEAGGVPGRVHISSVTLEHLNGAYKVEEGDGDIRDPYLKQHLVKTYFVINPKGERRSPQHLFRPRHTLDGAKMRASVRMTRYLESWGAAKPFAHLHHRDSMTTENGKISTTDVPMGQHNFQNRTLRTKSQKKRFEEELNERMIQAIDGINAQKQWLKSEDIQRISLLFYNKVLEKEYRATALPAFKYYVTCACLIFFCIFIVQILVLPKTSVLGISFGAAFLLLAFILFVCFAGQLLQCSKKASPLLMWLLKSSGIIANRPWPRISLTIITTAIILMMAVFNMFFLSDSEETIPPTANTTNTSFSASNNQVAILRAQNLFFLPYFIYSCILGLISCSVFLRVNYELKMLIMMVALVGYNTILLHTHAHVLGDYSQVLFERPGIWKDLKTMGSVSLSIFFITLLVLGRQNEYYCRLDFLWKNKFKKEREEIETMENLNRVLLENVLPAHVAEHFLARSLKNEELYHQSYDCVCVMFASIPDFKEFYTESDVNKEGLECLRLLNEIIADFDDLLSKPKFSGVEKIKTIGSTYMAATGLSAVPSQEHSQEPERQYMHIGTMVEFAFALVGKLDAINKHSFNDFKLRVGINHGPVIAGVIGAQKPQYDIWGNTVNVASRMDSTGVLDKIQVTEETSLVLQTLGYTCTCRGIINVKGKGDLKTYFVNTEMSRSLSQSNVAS

Structure (SMILES) | Activity [1] | Activity [2] | Activity [3] | Activity (Adenylate cyclase type 8 [4]) | EC50 (Adenylate cyclase type 8 [4]) [nM] | fold change (FC) (Adenylate cyclase type 8 [5])
CCOC(=O)C1(Cc2ccc(Cl)cc2Cl)C(=O)Nc2ccccc21 (stereo not drawn) | inactive | inactive | inactive | Dose-dependent effect | 105 | 33
C=C[C@@]1(C)CC(=O)[C@]2(O)[C@@]3(C)[C@@H](O)CCC(C)(C)[C@@H]3[C@H](O)[C@H](OC(C)=O)[C@@]2(C)O1 [COLFORSIN] |  |  |  |  | 93.7 | 35
